Reference: ChEMBL document CHEMBL1201862, “PubChem BioAssay data set” (2004)
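Five compound concentrations were applied to cells in 96-well plates for 48 hours; endpoints were derived by simple linear interpolation of the resulting dose-response curve. Here, GI50 denotes the concentration required for 50% inhibition of growth.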 The source made the active and inactive calls. Rule as the data show it: active = GI50 up to about 1.1 µM and inactive = higher.

Columns and labels:
Experiment in all cases: NCI-60 cell line screen, 48 h
A498 = tested on: A498
SW-620 = tested on: SW-620
UACC-257 = tested on: UACC-257
SR = tested on: SR
SK-OV-3 = tested on: SK-OV-3
HCT-116 = tested on: HCT-116
COLO 205 = tested on: COLO 205
LOX IMVI = tested on: LOX IMVI
NCI/ADR-RES = tested on: NCI/ADR-RES
BT-549 = tested on: BT-549
CCRF-CEM = tested on: CCRF-CEM
SN12C = tested on: SN12C
SNB-19 = tested on: SNB-19
CAKI-1 = tested on: CAKI-1
EKVX = tested on: EKVX
U-251 = tested on: U-251
NCI-H522 = tested on: NCI-H522
MDA-MB-435 = tested on: MDA-MB-435
Malme-3M = tested on: Malme-3M

Row | SMILES | GI50 (A498) | GI50 (SW-620) | GI50 (UACC-257) | GI50 (SR) | GI50 (SK-OV-3) | GI50 (HCT-116) | GI50 (COLO 205) | GI50 (LOX IMVI) | GI50 (NCI/ADR-RES) | GI50 (BT-549) | GI50 (CCRF-CEM) | GI50 (SN12C) | GI50 (SNB-19) | GI50 (CAKI-1) | GI50 (EKVX) | GI50 (U-251) | GI50 (NCI-H522) | GI50 (MDA-MB-435) | GI50 (Malme-3M)
1 | COc1ccc(-c2cc(-c3cc(C)cc(Br)c3O)no2)cc1 | 3.03 µM (inactive) | 16.3 µM (inactive) | 11 µM (inactive) | 67.5 µM (inactive) | 6.3 µM (inactive) | 10.3 µM (inactive) | > 10 µM (inactive) | 6.03 µM (inactive) | 7.67 µM (inactive) | 14.9 µM (inactive) | > 10 µM (inactive) | 7.59 µM (inactive) | 10.5 µM (inactive) | 6.98 µM (inactive) | 25.2 µM (inactive) | 5.66 µM (inactive) | 3.98 µM (inactive) | 15.9 µM (inactive) | –
2 | Cn1c2c(c3ccccc31)CCN1C(=O)C3SC21C1C(=O)N(c2ccccc2)C(=O)C31 (configuration not stated) | 26.4 µM (inactive) | 36.8 µM (inactive) | 20 µM (inactive) | 35.3 µM (inactive) | > 100 µM (inactive) | > 100 µM (inactive) | 41.8 µM (inactive) | > 100 µM (inactive) | > 100 µM (inactive) | > 100 µM (inactive) | – | > 100 µM (inactive) | > 100 µM (inactive) | > 100 µM (inactive) | > 100 µM (inactive) | > 100 µM (inactive) | > 100 µM (inactive) | > 100 µM (inactive) | > 100 µM (inactive)
3 | COC(=O)/C=C/c1ccc2nncnc2c1.COC(=O)/C=C\c1ccc2nncnc2c1 | 71.8 µM (inactive) | 87.9 µM (inactive) | 16.9 µM (inactive) | 56.9 µM (inactive) | > 100 µM (inactive) | 81.5 µM (inactive) | 21.6 µM (inactive) | 33.9 µM (inactive) | 62.4 µM (inactive) | 60.8 µM (inactive) | > 100 µM (inactive) | > 100 µM (inactive) | 57.4 µM (inactive) | > 100 µM (inactive) | > 100 µM (inactive) | 79.1 µM (inactive) | 28.5 µM (inactive) | 17.9 µM (inactive) | –
4 | O=c1c2c3c(sc2nc2n1sc1nc4sc5c(c4c(=O)n12)CCCC5)CCCC3 | > 100 µM (inactive) | 28.8 µM (inactive) | > 96.8 µM (inactive) | 25.8 µM (inactive) | 99.1 µM (inactive) | 35.7 µM (inactive) | 26.6 µM (inactive) | > 79.4 µM (inactive) | 32.1 µM (inactive) | 21.9 µM (inactive) | 24.4 µM (inactive) | > 87.1 µM (inactive) | 92.9 µM (inactive) | 19.5 µM (inactive) | 12 µM (inactive) | > 83 µM (inactive) | 10.8 µM (inactive) | 51.8 µM (inactive) | –
5 | Cc1cc(C)c2c(c1)CC1(Cc3c(C)cc(C)cc3C1=O)C2=O (configuration not stated) | > 100 µM (inactive) | > 100 µM (inactive) | > 100 µM (inactive) | > 100 µM (inactive) | – | – | > 100 µM (inactive) | > 100 µM (inactive) | > 100 µM (inactive) | > 100 µM (inactive) | > 100 µM (inactive) | > 100 µM (inactive) | > 100 µM (inactive) | > 100 µM (inactive) | > 100 µM (inactive) | > 100 µM (inactive) | > 100 µM (inactive) | > 100 µM (inactive) | 92.9 µM (inactive)
6 | Cc1ccc2c(O)cc(-c3cccc(Cl)c3)nc2n1 | 0.0333 µM (active) | < 0.01 µM (active) | 0.0393 µM (active) | 0.0266 µM (active) | 0.0411 µM (active) | < 0.016 µM (active) | 0.0308 µM (active) | 0.024 µM (active) | 0.0411 µM (active) | 0.278 µM (active) | < 0.0238 µM (active) | – | 0.0705 µM (active) | 0.0415 µM (active) | > 68.1 µM (inactive) | 0.0308 µM (active) | < 0.01 µM (active) | < 0.01 µM (active) | 0.0661 µM (active)
7 | Cc1cc(S(=O)(=O)NC(=C(C#N)C#N)[n+]2ccc(N(C)C)cc2)c([S-])cc1Cl | > 100 µM (inactive) | – | > 100 µM (inactive) | > 100 µM (inactive) | > 100 µM (inactive) | > 100 µM (inactive) | > 100 µM (inactive) | – | > 100 µM (inactive) | > 100 µM (inactive) | > 100 µM (inactive) | > 100 µM (inactive) | > 100 µM (inactive) | > 100 µM (inactive) | > 100 µM (inactive) | > 100 µM (inactive) | 42.3 µM (inactive) | > 100 µM (inactive) | > 100 µM (inactive)
8 | COC(=O)CNC(=O)CNC(=O)CSc1nnc(COc2ccc(Cl)cc2)n1-c1ccccc1 | > 100 µM (inactive) | 68.1 µM (inactive) | 19.1 µM (inactive) | 29 µM (inactive) | – | 38.7 µM (inactive) | > 100 µM (inactive) | 23.2 µM (inactive) | > 100 µM (inactive) | 24.4 µM (inactive) | 25.3 µM (inactive) | > 100 µM (inactive) | 86.3 µM (inactive) | 17.6 µM (inactive) | > 100 µM (inactive) | 49.9 µM (inactive) | 5.46 µM (inactive) | 18.7 µM (inactive) | 18.7 µM (inactive)
